The values that follow come from PubChem BioAssay (NCI).

SMILES strings stand for the structures.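 Where inhibition never reached the appropriate level, the endpoint shown equals the highest concentration tested. Otherwise, values were interpolated linearly from a five-concentration, 48-hour dose response in 96-well plates. The concentration for 50% growth inhibition is given as GI50. Definition used: TGI = concentration required for complete inhibition of growth.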 A value given as a limit tells only on which side of the number the result lay.

Among the test systems are HS 578T breast; HT29 colon; K-562 leukemia; KM12 colon; OVCAR-8 ovarian; SF-295 CNS; SK-MEL-5 melanoma; SK-OV-3 ovarian.
Common to all, as to assay: NCI anticancer screen, dose series, 48 h

`CC(C)(C)c1ccc(OC(=O)Nc2ccc(O)c(C(=O)O)c2)cc1`: the TGI in the experiment with HS 578T breast, in the experiment on HT29 colon, in the experiment on K-562 leukemia, with KM12 colon, in the experiment with OVCAR-8 ovarian and with SF-295 CNS was above 100 µM in each case. The TGI in the experiment with SK-MEL-5 melanoma and in the experiment with SK-OV-3 ovarian was above 100 µM in each case.
Take `C=C1C(=O)O[C@H]2[C@H]1CC/C(COC(=O)CCSCCC(=O)OC/C1=C/CC[C@@]3(C)O[C@H]3[C@H]3OC(=O)C(=C)[C@@H]3CC1)=C\CC[C@@]1(C)O[C@@H]21`: the GI50 with HS 578T breast is 3.18 µM; in the experiment on HT29 colon it was 0.496 µM; in the experiment with K-562 leukemia it was 0.371 µM; in the experiment on KM12 colon, 1.75 µM; in the experiment on OVCAR-8 ovarian it was 1.57 µM; in the experiment on SF-295 CNS, 1.77 µM. In addition, the GI50 in the experiment on SK-MEL-5 melanoma was 1.64 µM; with SK-OV-3 ovarian it was 4.1 µM. Moreover, the TGI with HS 578T breast is 24.5 µM; with HT29 colon it was 1.73 µM; with K-562 leukemia, 10.2 µM; in the experiment on KM12 colon, 3.52 µM; in the experiment with OVCAR-8 ovarian it was 3.96 µM; in the experiment with SF-295 CNS it was 3.94 µM. The TGI with SK-MEL-5 melanoma amounted to 3.14 µM; in the experiment on SK-OV-3 ovarian, 13.8 µM.
As to `N[C@@H]1C(=O)N2C(C(=O)OC(c3ccccc3)c3ccccc3)=C(CCl)CS[C@H]12`, the GI50 in the experiment with HS 578T breast was 46.8 µM; in the experiment with HT29 colon, 30.2 µM; with K-562 leukemia it was 15.4 µM; in the experiment on KM12 colon it was 38.1 µM; with OVCAR-8 ovarian it was 27.3 µM; with SF-295 CNS it was above 94.3 µM. For the same molecule, the GI50 is 40.8 µM in the experiment with SK-MEL-5 melanoma and above 100 µM with SK-OV-3 ovarian. The TGI in the experiment on HS 578T breast was above 100 µM; with HT29 colon, above 94 µM; in the experiment with K-562 leukemia, above 89.2 µM; in the experiment with KM12 colon, above 100 µM; in the experiment with OVCAR-8 ovarian, above 77 µM; with SF-295 CNS, above 100 µM. The TGI with SK-MEL-5 melanoma and with SK-OV-3 ovarian was above 100 µM each time.
As to `Nc1nc(N)c(C=Nc2ccc(Br)cc2)c(Nc2ccc(Br)cc2)n1`, the GI50 in the experiment with HS 578T breast is 8.96 µM; in the experiment with HT29 colon, 5.81 µM; in the experiment with K-562 leukemia, 2.91 µM; with KM12 colon, 4.22 µM; in the experiment on OVCAR-8 ovarian, 15.2 µM; in the experiment with SF-295 CNS, 11.3 µM. For the same molecule, the GI50 is 13.5 µM in the experiment with SK-MEL-5 melanoma and 15.1 µM in the experiment on SK-OV-3 ovarian. In addition, the TGI is 26.8 µM in the experiment on HS 578T breast; above 100 µM in the experiment with HT29 colon; 8.68 µM with K-562 leukemia; 18.4 µM with KM12 colon; 40.7 µM in the experiment on OVCAR-8 ovarian; 38.5 µM with SF-295 CNS. The TGI in the experiment with SK-MEL-5 melanoma was found to be 26.3 µM; in the experiment with SK-OV-3 ovarian, 28.4 µM.
On to `N#Cc1c(Br)n(C2OC(CO)C(O)C2O)c2ncnc(N)c12` (centres undefined), for which the GI50 in the experiment with HS 578T breast is 0.696 µM; in the experiment with HT29 colon, 0.885 µM; in the experiment with K-562 leukemia, 1.07 µM; in the experiment with KM12 colon, 1.71 µM; in the experiment with OVCAR-8 ovarian it was 1.59 µM; in the experiment on SF-295 CNS it was 2.07 µM. Besides, the GI50 was 2.68 µM in the experiment with SK-MEL-5 melanoma and 4.29 µM in the experiment with SK-OV-3 ovarian. Also, the TGI with HS 578T breast is 8.54 µM; in the experiment on HT29 colon it was above 36.2 µM; in the experiment on K-562 leukemia it was above 47.4 µM; with KM12 colon, above 40.1 µM; in the experiment on OVCAR-8 ovarian, above 100 µM; in the experiment on SF-295 CNS it was 30.7 µM. Also, the TGI in the experiment on SK-MEL-5 melanoma was 7 µM; in the experiment on SK-OV-3 ovarian it was above 45.4 µM.
`Cc1ccc(/C=C2\CN(C(=O)C(Cl)Cl)C/C(=C\c3ccc(C)cc3)C2=O)cc1`: the GI50 was 0.343 µM with HS 578T breast; 0.241 µM in the experiment with HT29 colon; 0.142 µM in the experiment with K-562 leukemia; 0.193 µM with KM12 colon; 0.357 µM in the experiment on OVCAR-8 ovarian; 0.223 µM with SF-295 CNS. The results for the GI50 with SK-MEL-5 melanoma and in the experiment on SK-OV-3 ovarian were 0.445 µM and 1 µM, respectively. For the same molecule, the TGI in the experiment on HS 578T breast is 3.71 µM; in the experiment on K-562 leukemia, above 100 µM; in the experiment with KM12 colon it was 0.48 µM; in the experiment with OVCAR-8 ovarian it was above 100 µM; with SF-295 CNS, 0.665 µM; with SK-MEL-5 melanoma, 1.53 µM. The molecule further displayed a TGI in the experiment on SK-OV-3 ovarian above 100 µM.
For the molecule `O=C(O)C1CCCCC1c1c2ccc(=O)c(O)c-2oc2c(O)c(O)ccc12` (centres undefined), the TGI in the experiment on HS 578T breast was above 100 µM; in the experiment on HT29 colon, above 100 µM; in the experiment on K-562 leukemia, 60.6 µM; in the experiment with KM12 colon, above 100 µM; with OVCAR-8 ovarian, 88.7 µM; in the experiment with SF-295 CNS, 56.4 µM. In addition, the TGI in the experiment on SK-MEL-5 melanoma and in the experiment on SK-OV-3 ovarian was above 100 µM throughout.
Turning to `Oc1ccc(-c2nc3ccc4[nH]ncc4c3c3c2CCCC3)c(F)c1`, the GI50 in the experiment on HS 578T breast was 2.35 µM; in the experiment on HT29 colon, 2.7 µM; with K-562 leukemia it was 2.71 µM; with KM12 colon, 0.362 µM; with OVCAR-8 ovarian it was 1.92 µM; in the experiment with SF-295 CNS it was 3.81 µM. Moreover, the GI50 in the experiment on SK-MEL-5 melanoma is 2.55 µM; in the experiment with SK-OV-3 ovarian, 0.765 µM. Moreover, the TGI in the experiment with HS 578T breast was found to be 8.98 µM; with HT29 colon, 11.2 µM; in the experiment on K-562 leukemia it was 21 µM; in the experiment on KM12 colon, 13.2 µM; in the experiment on OVCAR-8 ovarian, 9.39 µM; with SF-295 CNS it was 14.3 µM. Also, the TGI in the experiment on SK-MEL-5 melanoma amounted to 9.26 µM; with SK-OV-3 ovarian it was 2.75 µM.
Turning to `Cc1ccc(-c2c3c(nn2-c2ccc(S(N)(=O)=O)cc2)-c2ccccc2C3)cc1`, the GI50 in the experiment with HS 578T breast was 13.5 µM; with HT29 colon, 24.2 µM; with K-562 leukemia, 16.2 µM; in the experiment on KM12 colon, 15.5 µM; in the experiment with OVCAR-8 ovarian, 36.4 µM; in the experiment with SF-295 CNS it was 20.7 µM. Also, the GI50 in the experiment on SK-MEL-5 melanoma is 1.21 µM; in the experiment with SK-OV-3 ovarian it was 47.3 µM. The TGI is 36.2 µM in the experiment on HS 578T breast; 95.8 µM with HT29 colon; 53.9 µM with K-562 leukemia; 43.6 µM in the experiment with KM12 colon; above 100 µM in the experiment with OVCAR-8 ovarian; 47.3 µM in the experiment on SF-295 CNS. Besides, the results for the TGI in the experiment with SK-MEL-5 melanoma and in the experiment with SK-OV-3 ovarian were 5.76 µM and above 100 µM, respectively.
As for `COc1cccc(/C=N/NC(=S)NC2CC3CCC2C3)c1O` (centres undefined), the GI50 in the experiment on HS 578T breast was 4.27 µM; with HT29 colon, 30.1 µM; in the experiment with K-562 leukemia it was 7.62 µM; in the experiment with KM12 colon it was 26.3 µM; in the experiment on OVCAR-8 ovarian, 5.2 µM; in the experiment with SF-295 CNS, 4.63 µM. The figures for the GI50 with SK-MEL-5 melanoma and in the experiment with SK-OV-3 ovarian were 13.9 µM and 4.46 µM, respectively. Besides, the TGI was 22.2 µM in the experiment on HS 578T breast; 91.4 µM with HT29 colon; above 100 µM in the experiment with K-562 leukemia; above 100 µM in the experiment on KM12 colon; 18.5 µM in the experiment on OVCAR-8 ovarian; 18 µM in the experiment on SF-295 CNS. For the same molecule, the TGI with SK-MEL-5 melanoma amounted to 77.4 µM; with SK-OV-3 ovarian it was 14.4 µM.
Turning to `FC(F)(F)c1ccc(-c2cnc(-n3cc(COCCN4CCCCC4)nn3)nc2NC2CCCCCC2)cc1`, the GI50 with HS 578T breast is 3.91 µM; in the experiment with HT29 colon, 1.46 µM; in the experiment on K-562 leukemia, 1.75 µM; with KM12 colon it was 4.27 µM; with OVCAR-8 ovarian, 4.12 µM; with SF-295 CNS it was 4.85 µM. The GI50 with SK-MEL-5 melanoma is 3.46 µM; with SK-OV-3 ovarian, 4.04 µM. Besides, the TGI turned out to be 10.6 µM with HS 578T breast; 5.08 µM in the experiment on HT29 colon; 7.21 µM in the experiment on K-562 leukemia; 8.08 µM in the experiment on KM12 colon; 8.74 µM in the experiment with OVCAR-8 ovarian; 9.85 µM with SF-295 CNS. The TGI came out at 6.74 µM in the experiment with SK-MEL-5 melanoma and 7.62 µM in the experiment on SK-OV-3 ovarian.
Consider `Cn1nc(-c2ccc(Cl)cc2)nc2c(=O)n(C)c(=O)nc1-2`, for which the GI50 in the experiment on HS 578T breast is 1.35 µM; in the experiment on HT29 colon, 1.11 µM; in the experiment on K-562 leukemia, 1.17 µM; in the experiment on KM12 colon it was 1.35 µM; in the experiment on OVCAR-8 ovarian, 0.976 µM; in the experiment with SF-295 CNS, 0.777 µM. Also, the GI50 in the experiment on SK-MEL-5 melanoma was 0.321 µM; in the experiment with SK-OV-3 ovarian, 4.8 µM. Further, the TGI with HS 578T breast stood at 3.51 µM; with HT29 colon, 11.3 µM; in the experiment on K-562 leukemia, 3.22 µM; with KM12 colon, 5.5 µM; in the experiment on OVCAR-8 ovarian it was 3.51 µM; with SF-295 CNS it was 1.81 µM. Moreover, the TGI stood at 0.878 µM with SK-MEL-5 melanoma and 17.7 µM in the experiment with SK-OV-3 ovarian.
Take `NC1=NC(c2ccc(Cl)cc2)N(c2ccc(S(N)(=O)=O)cc2)C(N)=N1` (centres undefined): the TGI in the experiment with HS 578T breast, in the experiment on HT29 colon, with K-562 leukemia, in the experiment with KM12 colon, in the experiment with OVCAR-8 ovarian and in the experiment with SF-295 CNS was above 100 µM each time. Also, the TGI in the experiment with SK-MEL-5 melanoma and in the experiment on SK-OV-3 ovarian was above 100 µM in each case.
As for `COc1cccc(-c2nn(-c3ccccc3)cc2-c2ccnc(NCCNC(=O)Nc3cccc(C(F)(F)F)c3)c2)c1`, the GI50 in the experiment on HS 578T breast is 1.99 µM; in the experiment on HT29 colon it was 1.68 µM; in the experiment with K-562 leukemia it was 2.13 µM; in the experiment on KM12 colon, 2.08 µM; in the experiment with OVCAR-8 ovarian, 3.3 µM; in the experiment with SF-295 CNS, 1.66 µM. Further, the results for the GI50 in the experiment on SK-MEL-5 melanoma and in the experiment with SK-OV-3 ovarian were 1.73 µM and 3.5 µM, respectively. For the same molecule, the TGI in the experiment on HS 578T breast stood at 5.2 µM; in the experiment with HT29 colon, 3.47 µM; in the experiment on K-562 leukemia it was 4.83 µM; in the experiment on KM12 colon, 4.54 µM; in the experiment on OVCAR-8 ovarian it was 9.77 µM; with SF-295 CNS it was 3.28 µM. In addition, the values for the TGI in the experiment on SK-MEL-5 melanoma and in the experiment with SK-OV-3 ovarian were 3.15 µM and 12.2 µM, respectively.
